From patent publication US8415356B2, “Isoquinolinone derivatives as NK3 antagonists” (H. Lundbeck A/S, priority 2008, dated 2013)

molecular target: T1, human NK3 receptor (Homo sapiens, UniProt P29371); assay: NK3 receptor binding assay (SPA-based competition binding with 125I-NKB); conditions: read-out: Affinity Ki/nM
T1 construct: expressed in transfected cells; membranes prepared from them
T1 sequence (P29371 1-465): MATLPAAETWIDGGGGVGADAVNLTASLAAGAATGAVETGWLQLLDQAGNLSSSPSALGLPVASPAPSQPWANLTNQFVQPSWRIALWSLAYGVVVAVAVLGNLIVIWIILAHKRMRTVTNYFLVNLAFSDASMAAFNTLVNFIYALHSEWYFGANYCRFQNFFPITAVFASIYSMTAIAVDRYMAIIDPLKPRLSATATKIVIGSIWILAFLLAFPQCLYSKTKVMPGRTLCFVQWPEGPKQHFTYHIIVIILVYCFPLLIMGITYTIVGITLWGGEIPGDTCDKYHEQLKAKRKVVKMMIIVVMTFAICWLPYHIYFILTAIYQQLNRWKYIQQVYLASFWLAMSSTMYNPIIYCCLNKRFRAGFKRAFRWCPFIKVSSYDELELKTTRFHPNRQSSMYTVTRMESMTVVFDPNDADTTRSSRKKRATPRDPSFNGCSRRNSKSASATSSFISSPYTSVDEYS
Procedure: Membrane preparation: BHK cells stably expressing the human NK3 receptor were seeded in harvesting plates in Dulbeccos MEM containing GlutaMax (862 mg/l), 1 mM sodium pyruvate, 10% fetal calf serum, 1% Pen/Strep, 1 mg/ml G418 and were grown at 34° C. in a humidified atmosphere containing 10% CO2. To increase receptor expression, 10 μM trichotatin A was added to the media 24 hours before harvest of the cells at a confluency of app 90%. Prior to the harvesting, the cells were washed twice with PBS without Mg^2+ og Ca^2+ and subsequently scrapped of in 10 ml PBS pr harvesting plate. The cells suspension were centrifuged at 1500×G in three minutes before resuspension in 15 mM Tris-HCl pH 7.5 buffer containing 2 mM MgCl2; 0.3 mM EDTA and 1 mM EGTA (buffer A). The cell suspention was homogenised and subsequently centrifuged at 40000×G in 30 minutes. The membrane-pellet was resuspended in buffer A containing 250 mM sucrose, aliquoted and stored at −80° C.
Affinity assay description: The assay was performed as a SPA-based competition-binding assay in a 50 mM Tris pH 7.4 assay buffer containing 120 mM NaCl, 3 mM MnCl2, 40 μg/ml bacitracin, 2 μg/ml Chymostatin, 1 μg/ml Phosphoramidon and 4 μg/ml Leupeptin. […] The assay plate was subsequently under agitation incubated for 90 min at RT. The plate was centrifugated 10 minutes at 500×G and counted in a topcounter 5 minutes pr well.

In order of falling Ki:
1. Cc1ccc(-n2c(C)c(C(=O)N[C@H](c3cccc(F)c3)C3CC3)c3cccc(F)c3c2=O)cn1 [2l, 8-Fluoro-3-methyl-2-(6-methyl-pyridin-3-yl)-1-oxo-1,2-dihydro-isoquinoline-4-carboxylic acid [(S)-cyclopropyl-(3-fluoro-phenyl)-methyl]-amide]  220 nM
2. CCc1nnc(-n2c(C)c(C(=O)N[C@H](c3cccc(F)c3)C3CC3)c3cccc(F)c3c2=O)s1 [2v, 2-(5-Ethyl-[1,3,4]thiadiazol-2-yl)-8-fluoro-3-methyl-1-oxo-1,2-dihydro-isoquinoline-4-carboxylic acid [(S)-cyclopropyl-(3-fluoro-phenyl)-methyl]-amide]  210 nM
3. Cc1c(C(=O)N[C@H](c2cccc(F)c2)C2CC2)c2cccc(F)c2c(=O)n1-n1cnnc1 [2u, 8-Fluoro-3-methyl-1-oxo-2-[1,2,4]triazol-4-yl-1,2-dihydro-isoquinoline-4-carboxylic acid [(S)-cyclopropyl-(3-fluoro-phenyl)-methyl]-amide]  200 nM
4. Cc1c(C(=O)N[C@H](c2cccc(F)c2)C2CC2)c2cccc(F)c2c(=O)n1-c1ccccn1 [2b, 8-Fluoro-3-methyl-1-oxo-2-pyridin-2-yl-1,2-dihydro-isoquinoline-4-carboxylic acid [(S)-cyclopropyl-(3-fluoro-phenyl)-methyl]-amide]  150 nM
5. Cc1csc(-n2c(C)c(C(=O)N[C@H](c3cccc(F)c3)C3CC3)c3cccc(F)c3c2=O)n1 [2r, 8-Fluoro-3-methyl-2-(4-methyl-thiazol-2-yl)-1-oxo-1,2-dihydro-isoquinoline-4-carboxylic acid [(S)-cyclopropyl-(3-fluoro-phenyl)-methyl]-amide]  150 nM
6. Cc1c(C(=O)N[C@H](c2cccc(F)c2)C2CC2)c2cccc(F)c2c(=O)n1-c1ccc(Cl)nc1 [2d, 2-(6-Chloro-pyridin-3-yl)-8-fluoro-3-methyl-1-oxo-1,2-dihydro-isoquinoline-4-carboxylic acid [(S)-cyclopropyl-(3-fluoro-phenyl)-methyl]-amide]  120 nM
7. Cc1c(C(=O)N[C@H](c2cccc(F)c2)C2CC2)c2cccc(F)c2c(=O)n1-c1cncnc1 [2k, 8-Fluoro-3-methyl-1-oxo-2-pyrimidin-5-yl-1,2-dihydro-isoquinoline-4-carboxylic acid [(S)-cyclopropyl-(3-fluoro-phenyl)-methyl]-amide]  110 nM
8. O=C(N[C@H](c1cccc(F)c1)C1CC1)c1c(CN2CCCC2=O)n(-c2cccnc2)c(=O)c2c(F)cccc12 [6b, 8-Fluoro-1-oxo-3-(2-oxo-pyrrolidin-1-ylmethyl)-2-pyridin-3-yl-1,2-dihydro-isoquinoline-4-carboxylic acid [(S)-cyclopropyl-(3-fluoro-phenyl)-methyl]-amide]  110 nM
9. Cc1c(C(=O)N[C@H](c2cccc(F)c2)C2CC2)c2cccc(F)c2c(=O)n1-n1cccc1 [2ac, 8-Fluoro-3-methyl-1-oxo-2-pyrrol-1-yl-1,2-dihydro-isoquinoline-4-carboxylic acid [(S)-cyclopropyl-(3-fluoro-phenyl)-methyl]-amide]  96 nM
10. Cc1c(C(=O)N[C@H](c2cccc(F)c2)C2CCC2)c2cccc(F)c2c(=O)n1-c1ccn(C)n1 [3f, 8-Fluoro-3-methyl-2-(1-methyl-1H-pyrazol-3-yl)-1-oxo-1,2-dihydro-isoquinoline-4-carboxylic acid [(S)-cyclobutyl-(3-fluoro-phenyl)-methyl]-amide]  71 nM
11. Cc1c(C(=O)N[C@H](c2cccc(F)c2)C2CC2)c2cccc(O)c2c(=O)n1-c1cccnc1 [8a, 8-Hydroxy-3-methyl-1-oxo-2-pyridin-3-yl-1,2-dihydro-isoquinoline-4-carboxylic acid [(S)-cyclopropyl-(3-fluoro-phenyl)-methyl]-amide]  33 nM
12. Cc1c(C(=O)N[C@H](c2ccccc2)C2CCC2)c2cccc(F)c2c(=O)n1-c1cccnc1 [4a, 8-Fluoro-3-methyl-1-oxo-2-pyridin-3-yl-1,2-dihydro-isoquinoline-4-carboxylic acid ((S)-cyclobutyl-phenyl-methyl)-amide]  18 nM
13. Cc1c(C(=O)N[C@H](c2cccc(F)c2)C2CCC2)c2cc(F)cc(F)c2c(=O)n1-c1cccnc1 [7c, 6,8-Difluoro-3-methyl-1-oxo-2-pyridin-3-yl-1,2-dihydro-isoquinoline-4-carboxylic acid [(S)-cyclobutyl-(3-fluoro-phenyl)-methyl]-amide]  15 nM
14. CC(C)(C)N1CCN(Cc2c(C(=O)N[C@H](c3cccc(F)c3)C3CC3)c3cccc(F)c3c(=O)n2-c2cccnc2)CC1 [6a, 3-(4-tert-Butyl-piperazin-1-ylmethyl)-8-fluoro-1-oxo-2-pyridin-3-yl-1,2-dihydro-isoquinoline-4-carboxylic acid [(S)-cyclopropyl-(3-fluoro-phenyl)-methyl]-amide]  13 nM

tested on: not given; assay: not given; conditions: versus placebo; delusions, hallucinations and paranoia; cited from earlier work

In the case of CC(=O)N(C)C1(c2ccccc2)CCN(CCC[C@]2(c3ccc(Cl)c(Cl)c3)CCCN(C(=O)c3ccccc3)C2)CC1 [Osanetant, osanetant], the “effect in clinical trials, in particular on positive symptoms of psychosis” value is given as “superior to placebo”.

tested on: not given; assay: not given; conditions: schizophrenics; cited from earlier work

In the case of CC[C@H](NC(=O)c1c(O)c(-c2ccccc2)nc2ccccc12)c1ccccc1 [talnetant], the “effect in clinical trials on cognitive behaviour” value is given as “ameliorate the cognitive behaviour”.
